Assay results as given in the supplement of paper PMC10307832.

Experiments:
Test in all cases: relative viability (nuclei count vs DMSO), 5 days (fraction); higher = more cells survive
[1] = test system: SW 1573
Procedure, shortened: (§1)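 The day after seeding in 1536-well plates, lung cancer cell lines were treated by pin tool with a single drug, or with a fixed anchor-drug dose together with five library-drug doses (not always all listed) in √10 steps. After 5 days, a combined fix-and-stain solution (final 0.05% Triton X-100, 1% formaldehyde, 1 ug/ml Hoechst) was added. Nuclei counted on 4× images gave relative viability as treated counts over vehicle counts, reported as the median of duplicate plates.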

[2] = test system: NCI-H23
Procedure, shortened: as §1

[3] = test system: PC-14
Procedure, shortened: as §1

[4] = test system: NCI-H838
Procedure, shortened: as §1

[5] = test system: LU99A
Procedure, shortened: as §1

[6] = test system: LCLC-97TM1
Procedure, shortened: as §1

[7] = test system: A-427
Procedure, shortened: as §1

[8] = test system: H3255
Procedure, shortened: as §1

[9] = test system: NCI-H1793
Procedure, shortened: as §1

[10] = test system: NCI-H1650
Procedure, shortened: as §1

[11] = test system: NCI-H727
Procedure, shortened: as §1

[12] = test system: NCI-H1944
Procedure, shortened: as §1

[13] = test system: COR-L23
Procedure, shortened: as §1

[14] = test system: NCI-H460
Procedure, shortened: as §1

[15] = test system: PC-3 [JPC-3]
Procedure, shortened: as §1

[16] = test system: RERF-LC-KJ
Procedure, shortened: as §1

[17] = test system: NCI-H2347
Procedure, shortened: as §1

[18] = test system: NCI-H1651
Procedure, shortened: as §1

[19] = test system: 201T
Procedure, shortened: as §1

[20] = test system: LK-2
Procedure, shortened: as §1

In the case of `C[C@@H]1CN(CC(=O)Nc2ccc3c(c2)Cc2cccc(-c4cc(=O)cc(N5CCOCC5)o4)c2S3)C[C@H](C)O1` + CC1(C)CCC(c2ccc(Cl)cc2)=C(CN2CCN(c3ccc(C(=O)NS(=O)(=O)c4ccc(N[C@H](CCN5CCOCC5)CSc5ccccc5)c(S(=O)(=O)C(F)(F)F)c4)cc3)CC2)C1 [Navitoclax] (partner 0.5 µM), the relative viability ([1]; first compound 0.04 µM) is reported as 0.979, the relative viability ([1]; first compound 0.1265 µM) is reported as 1.05 and the relative viability ([1]; first compound 0.4 µM) is reported as 0.846. It also gave a relative viability ([1]; first compound 4 µM) of 0.842, a relative viability ([2]; first compound 0.04 µM) of 1 and a relative viability ([2]; first compound 0.1265 µM) of 1.03. For the same molecule, the relative viability ([2]; first compound 0.4 µM) was 0.708, the relative viability ([2]; first compound 4 µM) was 0.668 and the relative viability ([3]; first compound 0.04 µM) was 1.04. The relative viability ([3]; first compound 0.1265 µM) was 0.987, the relative viability ([3]; first compound 0.4 µM) was 1.01 and the relative viability ([3]; first compound 4 µM) was 0.797. The relative viability ([4]; first compound 0.04 µM) was 1.17, the relative viability ([4]; first compound 0.1265 µM) was 1.16 and the relative viability ([4]; first compound 0.4 µM) was 1.07. For the same molecule, the relative viability ([4]; first compound 4 µM) was 0.896, the relative viability ([5]; first compound 0.04 µM) was 0.856 and the relative viability ([5]; first compound 0.1265 µM) was 0.758. For the same molecule, the relative viability ([5]; first compound 0.4 µM) was 0.926, the relative viability ([5]; first compound 4 µM) was 0.821 and the relative viability ([6]; first compound 0.1265 µM) was 0.645. For the same molecule, the relative viability ([6]; first compound 0.4 µM) was 0.279, the relative viability ([6]; first compound 4 µM) was 0.318 and the relative viability ([7]; first compound 0.04 µM) was 0.988. For the same molecule, the relative viability ([7]; first compound 0.1265 µM) was 0.982, the relative viability ([7]; first compound 0.4 µM) was 0.983 and the relative viability ([7]; first compound 4 µM) was 0.967. The relative viability ([8]; first compound 0.04 µM) was 0.475, the relative viability ([8]; first compound 0.1265 µM) was 0.411 and the relative viability ([8]; first compound 0.4 µM) was 0.463. The relative viability ([8]; first compound 4 µM) was 0.518, the relative viability ([9]; first compound 0.04 µM) was 0.495 and the relative viability ([9]; first compound 0.1265 µM) was 0.341. It also gave a relative viability ([9]; first compound 0.4 µM) of 0.322, a relative viability ([9]; first compound 4 µM) of 0.377 and a relative viability ([10]; first compound 0.04 µM) of 1.25. It also gave a relative viability ([10]; first compound 0.1265 µM) of 1.09, a relative viability ([10]; first compound 0.4 µM) of 1.38 and a relative viability ([10]; first compound 4 µM) of 0.969. For the same molecule, the relative viability ([11]; first compound 0.04 µM) was 0.482, the relative viability ([11]; first compound 0.1265 µM) was 0.494 and the relative viability ([11]; first compound 0.4 µM) was 0.412. It also gave a relative viability ([11]; first compound 4 µM) of 0.381, a relative viability ([12]; first compound 0.1265 µM) of 1.02 and a relative viability ([12]; first compound 0.4 µM) of 1.11. It also gave a relative viability ([12]; first compound 4 µM) of 1.06, a relative viability ([13]; first compound 0.04 µM) of 1.25 and a relative viability ([13]; first compound 0.1265 µM) of 0.985. It also gave a relative viability ([13]; first compound 0.4 µM) of 1.17, a relative viability ([13]; first compound 4 µM) of 0.962 and a relative viability ([14]; first compound 0.04 µM) of 1.07. It also gave a relative viability ([14]; first compound 0.1265 µM) of 1.17, a relative viability ([14]; first compound 0.4 µM) of 1.22 and a relative viability ([14]; first compound 4 µM) of 0.955. It also gave a relative viability ([15]; first compound 0.04 µM) of 0.875, a relative viability ([15]; first compound 0.1265 µM) of 0.795 and a relative viability ([15]; first compound 0.4 µM) of 0.836. For the same molecule, the relative viability ([15]; first compound 4 µM) was 0.835, the relative viability ([16]; first compound 0.04 µM) was 0.736 and the relative viability ([16]; first compound 0.1265 µM) was 1.12. The relative viability ([16]; first compound 0.4 µM) was 1.16, the relative viability ([16]; first compound 4 µM) was 0.713 and the relative viability ([17]; first compound 0.04 µM) was 0.768. The relative viability ([17]; first compound 0.1265 µM) was 0.81, the relative viability ([17]; first compound 0.4 µM) was 0.769 and the relative viability ([17]; first compound 4 µM) was 0.672. It also gave a relative viability ([18]; first compound 0.04 µM) of 1.05, a relative viability ([18]; first compound 0.1265 µM) of 0.987 and a relative viability ([18]; first compound 0.4 µM) of 0.836. The relative viability ([18]; first compound 4 µM) was 1.03, the relative viability ([19]; first compound 0.04 µM) was 1.21 and the relative viability ([19]; first compound 0.1265 µM) was 1.2. It also gave a relative viability ([19]; first compound 0.4 µM) of 1.19, a relative viability ([19]; first compound 4 µM) of 1.14 and a relative viability ([20]; first compound 0.1265 µM) of 0.83. The relative viability ([20]; first compound 0.4 µM) was 0.831 and the relative viability ([20]; first compound 4 µM) was 1.02.

`CC(C)Oc1cc(Nc2nc(N[C@@H](C)c3ccc(F)cn3)ncc2Cl)n[nH]1` [AZ23] + CC1(C)CCC(c2ccc(Cl)cc2)=C(CN2CCN(c3ccc(C(=O)NS(=O)(=O)c4ccc(N[C@H](CCN5CCOCC5)CSc5ccccc5)c(S(=O)(=O)C(F)(F)F)c4)cc3)CC2)C1 [Navitoclax] (partner 0.5 µM) showed a relative viability ([1]; first compound 0.01 µM) of 0.991, a relative viability ([1]; first compound 0.03162 µM) of 0.952 and a relative viability ([1]; first compound 0.3162 µM) of 0.833. For the same molecule, the relative viability ([2]; first compound 0.03162 µM) was 0.981, the relative viability ([2]; first compound 0.3162 µM) was 0.69 and the relative viability ([3]; first compound 0.01 µM) was 0.989. It also gave a relative viability ([3]; first compound 0.03162 µM) of 1.21, a relative viability ([3]; first compound 0.3162 µM) of 1.1 and a relative viability ([4]; first compound 0.01 µM) of 1.15. It also gave a relative viability ([4]; first compound 0.03162 µM) of 1.45, a relative viability ([4]; first compound 0.3162 µM) of 1.19 and a relative viability ([5]; first compound 0.01 µM) of 0.758. The relative viability ([5]; first compound 0.03162 µM) was 0.82, the relative viability ([5]; first compound 0.3162 µM) was 0.701 and the relative viability ([6]; first compound 0.01 µM) was 0.381. The relative viability ([6]; first compound 0.03162 µM) was 0.364, the relative viability ([6]; first compound 0.3162 µM) was 0.603 and the relative viability ([7]; first compound 0.01 µM) was 0.941. For the same molecule, the relative viability ([7]; first compound 0.03162 µM) was 1.06, the relative viability ([7]; first compound 0.3162 µM) was 0.864 and the relative viability ([8]; first compound 0.01 µM) was 0.514. For the same molecule, the relative viability ([8]; first compound 0.03162 µM) was 0.677, the relative viability ([8]; first compound 0.3162 µM) was 0.556 and the relative viability ([9]; first compound 0.01 µM) was 0.425. It also gave a relative viability ([9]; first compound 0.03162 µM) of 0.302, a relative viability ([9]; first compound 0.3162 µM) of 0.341 and a relative viability ([10]; first compound 0.01 µM) of 0.925. The relative viability ([10]; first compound 0.03162 µM) was 1.28, the relative viability ([10]; first compound 0.3162 µM) was 1.05 and the relative viability ([11]; first compound 0.01 µM) was 0.382. It also gave a relative viability ([11]; first compound 0.03162 µM) of 0.506, a relative viability ([11]; first compound 0.3162 µM) of 0.385 and a relative viability ([12]; first compound 0.01 µM) of 0.985. The relative viability ([12]; first compound 0.03162 µM) was 1.07, the relative viability ([12]; first compound 0.3162 µM) was 1.01 and the relative viability ([13]; first compound 0.01 µM) was 0.839. It also gave a relative viability ([13]; first compound 0.03162 µM) of 1.11, a relative viability ([13]; first compound 0.3162 µM) of 1.05 and a relative viability ([14]; first compound 0.01 µM) of 1.12. The relative viability ([14]; first compound 0.03162 µM) was 1.41, the relative viability ([14]; first compound 0.3162 µM) was 1.44 and the relative viability ([15]; first compound 0.01 µM) was 0.881. It also gave a relative viability ([15]; first compound 0.03162 µM) of 0.863, a relative viability ([15]; first compound 0.3162 µM) of 0.762 and a relative viability ([16]; first compound 0.01 µM) of 0.719. It also gave a relative viability ([16]; first compound 0.03162 µM) of 1.15, a relative viability ([16]; first compound 0.3162 µM) of 0.879 and a relative viability ([17]; first compound 0.01 µM) of 0.858. The relative viability ([17]; first compound 0.03162 µM) was 0.755, the relative viability ([17]; first compound 0.3162 µM) was 0.818 and the relative viability ([18]; first compound 0.01 µM) was 0.887. For the same molecule, the relative viability ([18]; first compound 0.03162 µM) was 1.11, the relative viability ([18]; first compound 0.3162 µM) was 1.11 and the relative viability ([19]; first compound 0.01 µM) was 1.23. It also gave a relative viability ([19]; first compound 0.03162 µM) of 1.22, a relative viability ([19]; first compound 0.3162 µM) of 1.17 and a relative viability ([20]; first compound 0.01 µM) of 0.653. For the same molecule, the relative viability ([20]; first compound 0.03162 µM) was 0.915 and the relative viability ([20]; first compound 0.3162 µM) was 0.909.
